Among the data in US9156872B2, “2′-azido substituted nucleoside derivatives and methods of use thereof for the treatment of viral diseases” (priority 2011, dated 2015) are EC50 values, retold here.

Molecules are shown by their SMILES. Bounds are passed on as bounds.

In one test the test system is HCV replicon cells. Description: Cell-based HCV replicon assay (replicon RNA by Taqman real time PCR). The note with it: HCV replicon 1b, cells harvested on day 3; read-out: 1b EC50.
Turning to `COC(=O)[C@H](C)NP1(=O)OC[C@H]2O[C@@H](n3ccc(N)nc3=O)[C@](C)(N=[N+]=[N-])[C@@H]2O1` (single isomer, unassigned) [Compound 530], the EC50 was 67000 nM.
Same read-out and setting: under `C[C@@]1(N=[N+]=[N-])[C@@H]2OP(=O)(OC3CCCC3)OC[C@H]2O[C@H]1n1ccc(=O)[nH]c1=O` (single isomer, unassigned) [Compound 561] stands 3100 nM; under `C[C@@]1(N=[N+]=[N-])[C@@H]2OP(=O)(OC3CCCC3)OC[C@H]2O[C@H]1n1ccc(=O)[nH]c1=O` (single isomer, unassigned) [Compound 562], 400 nM; under `CC(C)OP1(=O)OC[C@H]2O[C@@H](n3ccc(=O)[nH]c3=O)[C@](C)(N=[N+]=[N-])[C@@H]2O1` (single isomer, unassigned) [Compound 563], over 100000 nM.
Same read-out and setting: under `CC(C)OP1(=O)OC[C@H]2O[C@@H](n3ccc(=O)[nH]c3=O)[C@](C)(N=[N+]=[N-])[C@@H]2O1` (single isomer, unassigned) [Compound 564] stands over 100000 nM; under `CCCOP1(=O)OC[C@H]2O[C@@H](n3ccc(=O)[nH]c3=O)[C@](C)(N=[N+]=[N-])[C@@H]2O1` (single isomer, unassigned) [Compound 565], over 100000 nM; under `CCCOP1(=O)OC[C@H]2O[C@@H](n3ccc(=O)[nH]c3=O)[C@](C)(N=[N+]=[N-])[C@@H]2O1` (single isomer, unassigned) [Compound 566], over 100000 nM.

Still in this test, the particulars now being: Hepatitis C virus, 72 h, HCV replicon 1b, cells harvested on day 3; read-out: 1b EC50.
With `COC(=O)[C@H](C)NP1(=O)OC[C@H]2O[C@@H](n3ccc(N)nc3=O)[C@](C)(N=[N+]=[N-])[C@@H]2O1` (single isomer, unassigned) [Compound 529], the EC50 was determined as 59000 nM.
`C[C@@]1(N=[N+]=[N-])[C@H](O)[C@@H](CO)O[C@H]1n1ccc(N)nc1=O` [Compound 1]: the EC50 is 26000 nM.
Still for that read-out and setting: under `CC(=O)Nc1ccn([C@@H]2O[C@H](CO)[C@@H](O)[C@@]2(C)N=[N+]=[N-])c(=O)n1` [Compound 2] stands 75000 nM; under `C[C@@]1(N=[N+]=[N-])[C@H](O)[C@@H](CO)O[C@H]1n1ccc(=O)[nH]c1=O` [Compound 4], over 100000 nM.
On the same count and under the same terms, the same measure for `CCOc1nc(N)nc2c1ncn2[C@@H]1O[C@H](CO)[C@@H](O)[C@@]1(C)N=[N+]=[N-]` [Compound 8]: over 100000 nM.

The test is the same for the next values; noted with them: Hepatitis C virus, 72 h, read-out: 1b EC50.
Regarding `CCOC(=O)[C@H](C)NP(=O)(OC[C@H]1O[C@@H](n2cnc3c(OCC)nc(N)nc32)[C@](C)(N=[N+]=[N-])[C@@H]1O)Oc1ccc(Cl)cc1` (single isomer, unassigned) [Compound 352], the EC50 came out at 1100 nM.
On the same count and under the same terms, the same measure for `CCOc1nc(N)nc2c1ncn2[C@@H]1O[C@H](COP(=O)(N[C@@H](C)C(=O)OC)Oc2cccc3ccccc23)[C@@H](O)[C@@]1(C)N=[N+]=[N-]` (single isomer, unassigned) [Compound 355]: 1300 nM.
Consider `CCOC(=O)[C@H](C)NP(=O)(OC[C@H]1O[C@@H](n2cnc3c(OCC)nc(N)nc32)[C@](C)(N=[N+]=[N-])[C@@H]1O)Oc1ccccc1Cl` (single isomer, unassigned) [Compound 358], for which the EC50 worked out at 2300 nM.
Still for that read-out and setting: the same measure for `CCCOC(=O)[C@H](C)N[P@@](=O)(OC[C@H]1O[C@@H](n2ccc(=O)[nH]c2=O)[C@](C)(N=[N+]=[N-])[C@@H]1O)Oc1cccc2ccccc12` (single isomer, unassigned) [Compound 375]: 800 nM.
As to `CCCOC(=O)[C@H](C)N[P@](=O)(OC[C@H]1O[C@@H](n2ccc(=O)[nH]c2=O)[C@](C)(N=[N+]=[N-])[C@@H]1O)Oc1cccc2ccccc12` (single isomer, unassigned) [Compound 376], the EC50 amounted to 2200 nM.
Same read-out and setting: under `CCCCOC(=O)[C@H](C)NP(=O)(OC[C@H]1O[C@@H](n2ccc(N)nc2=O)[C@](C)(N=[N+]=[N-])[C@@H]1O)Oc1cccc2ccccc12` (some centres unmarked) [Compound 3] stands 1200 nM; under `COC(=O)[C@H](C)NP(=O)(OC[C@H]1O[C@@H](n2ccc(=O)[nH]c2=O)[C@](C)(N=[N+]=[N-])[C@@H]1O)Oc1ccccc1` (some centres unmarked) [Compound 5], 3300 nM; under `CCCCOC(=O)[C@H](C)NP(=O)(OC[C@H]1O[C@@H](n2ccc(=O)[nH]c2=O)[C@](C)(N=[N+]=[N-])[C@@H]1O)Oc1cccc2ccccc12` (some centres unmarked) [Compound 6], 1100 nM.
For the compound `CCOc1nc(N)nc2c1ncn2[C@@H]1O[C@H](COP(=O)(N[C@@H](C)C(=O)OC)Oc2ccccc2)[C@@H](O)[C@@]1(C)N=[N+]=[N-]` (some centres unmarked) [Compound 9], the EC50 amounted to 800 nM.

Still in this test, the particulars now being: read-out: 1b EC50.
Consider `COC(=O)[C@H](C)NP(=O)(OC)OC[C@H]1O[C@@H](n2ccc(N)nc2=O)[C@](C)(N=[N+]=[N-])[C@@H]1O` (single isomer, unassigned) [Compound 346], for which the EC50 is over 100000 nM.
The same measure, in the same setting: under `CCOc1nc(N)nc2c1ncn2[C@@H]1O[C@H](COP(=O)(N[C@@H](C)C(=O)OCc2ccccc2)Oc2ccccc2)[C@@H](O)[C@@]1(C)N=[N+]=[N-]` (single isomer, unassigned) [Compound 350] stands 1000 nM; under `CCOc1nc(N)nc2c1ncn2[C@@H]1O[C@H](COP(=O)(N[C@@H](C)C(=O)OCc2ccccc2)Oc2ccccc2)[C@@H](O)[C@@]1(C)N=[N+]=[N-]` (single isomer, unassigned) [Compound 351], 2600 nM; under `CCOC(=O)[C@H](C)NP(=O)(OC[C@H]1O[C@@H](n2cnc3c(OCC)nc(N)nc32)[C@](C)(N=[N+]=[N-])[C@@H]1O)Oc1ccc(Cl)cc1` (single isomer, unassigned) [Compound 353], 900 nM.
Same read-out and setting: the same measure for `CCOC(=O)[C@H](C)NP(=O)(OC[C@H]1O[C@@H](n2cnc3c(OCC)nc(N)nc32)[C@](C)(N=[N+]=[N-])[C@@H]1O)Oc1ccccc1Cl` (single isomer, unassigned) [Compound 359]: 3300 nM; for `CCOc1nc(N)nc2c1ncn2[C@@H]1O[C@H](COP(=O)(N[C@@H](C)C(=O)OC(C)C)Oc2ccc(Cl)c(Cl)c2)[C@@H](O)[C@@]1(C)N=[N+]=[N-]` (single isomer, unassigned) [Compound 360]: 4800 nM; for `CCOc1nc(N)nc2c1ncn2[C@@H]1O[C@H](COP(=O)(N[C@@H](C)C(=O)OC(C)C)Oc2ccc(Cl)c(Cl)c2)[C@@H](O)[C@@]1(C)N=[N+]=[N-]` (single isomer, unassigned) [Compound 361]: 11200 nM.
On the same count and under the same terms, under `CCOc1nc(N)nc2c1ncn2[C@@H]1O[C@H](COP(=O)(N[C@@H](C)C(=O)OC2CCC2)Oc2ccccc2)[C@@H](O)[C@@]1(C)N=[N+]=[N-]` (single isomer, unassigned) [Compound 362] stands 2600 nM; under `CCOc1nc(N)nc2c1ncn2[C@@H]1O[C@H](COP(=O)(N[C@@H](C)C(=O)OC2CCC2)Oc2ccccc2)[C@@H](O)[C@@]1(C)N=[N+]=[N-]` (single isomer, unassigned) [Compound 363], 200 nM.
Consider `CCOc1nc(N)nc2c1ncn2[C@@H]1O[C@H](COP(=O)(N[C@@H](C)C(=O)OC(C)C)Oc2ccc(F)cc2)[C@@H](O)[C@@]1(C)N=[N+]=[N-]` (single isomer, unassigned) [Compound 364], for which the EC50 was 6400 nM.
As to `CCOc1nc(N)nc2c1ncn2[C@@H]1O[C@H](COP(=O)(N[C@@H](C)C(=O)OC(C)C)Oc2ccc(F)cc2)[C@@H](O)[C@@]1(C)N=[N+]=[N-]` (single isomer, unassigned) [Compound 365], the EC50 came to 1100 nM.
